Results as given in US9060966B2, “Use of 2,5-dihydroxybenzene derivatives for the treatment of arthritis and pain” (priority 2006, dated 2015).
“Also recorded” adds a separate entry of the source.

Legend:
[1] = system: uterine tissue implanted in the peritoneal cavity; experiment: Rat model of endometriosis (autologous implant, histology); type: in vivo; details: 200 mg/kg/day i.p., two weeks
From the text: In these rats, the epithelial layer (a) and the stroma (b) are clearly observed in the endometrium, while longitudinal (c) and circular (d) normal layers of smooth muscle cells are observed in the myometrium adjacent to the peritoneal tissue (e). […] The neovascularization observed in the uterine tissue implanted in control rats (shown with arrows in A) is not present in rats treated with 2,5-dihydroxybenzenesulfonic (DHBS) (C). • D) Magnification of the area marked with a box in C.
Sprague-Dawley rats were anesthetized as described (Fernandez-Tornero C et al. J Biol Chem, 2003). Endometriotic lesions were induced using a known rat model of endometriosis (Vernon M W and Wilson E A. Fertil Steril, 1985). In summary, 2 mm fragments of the cervix were autologously implanted between branches in the mesenteric vascular tree. The rats were treated or not treated (control) daily during two weeks after the surgery with 2,5-dihydroxybenzene sulfonic acid (DHBS) (200 mg/kg; i.p.). Then, the rats were sacrificed and the endometrial ectopic tissue was removed to make its histological examination. […] This example illustrates the therapeutic activity of 2,5-dihydroxybenzene sulfonate (DHBS) in the treatment of endometriosis.

[2] = system: angiogenesis induced by Helicobacter pylori in the human gastric mucosa; experiment: Angiogenesis induced by Helicobacter pylori in the human gastric mucosa (biopsies); type: in vivo; details: 500 mg/day oral, one week, one patient
Procedure: FIG. 5. Helicobacter pylori • A) Hematoxylin-eosin staining of the gastric mucosa of a sample obtained from a patient infected with Helicobacter pylori before treatment. The arrows and the asterisk indicate the formation of neovessels in the mucosa protruding the gastric lumen through the lost epithelial layer. • B) Hematoxylin-eosin staining of the gastric mucosa of a sample obtained from the same patient infected with Helicobacter pylori after administering 500 mg of 2,5-dihydroxybenzenesulfonate (DHBS) daily for a week.
A biopsy of the gastric mucosa was performed in a patient chronically infected with Helicobacter pylori before the oral treatment with 2,5-dihydroxybenzene sulfonic acid (Dobesilate) (500 mg/day). After a week of treatment, another biopsy was performed in the patient. Both biopsies were evaluated using hematoxylin-eosin staining. […] Microscopically, the arrows and the asterisk indicate the formation of neovessels in the mucosa protruding the gastric lumen through the lost epithelial layer. […] This example illustrates that the use of DHBS is beneficial in the treatment of gastritis and angiogenesis caused by the infection with Helicobacter pylori.

[3] = target: fibroblast growth factor-1 (FGF-1) (Homo sapiens, UniProt P05230); experiment: Inhibition of fibroblast mitogenesis induced by FGF-1 in Balb/c 3T3 fibroblasts; type: cell-based; parameters: host or cells: added to Balb/c 3T3 fibroblasts (mouse); details: quiescent Balb/c 3T3 cultures; potassium salts, except 2-acetoxy-5-hydroxybenzene sulfonate as calcium salt
Procedure: The evaluated compounds were used in the form of potassium salt, except in the first case in which calcium salt was used. The experiments were carried out as described in Fernandez-Tornero C et al. J Biol Chem, 2003.

[4] = system: methacholine induced bronchoconstriction in OVA-sensitized mice; experiment: Experimentally induced (OVA) asthma in mice: methacholine bronchoconstriction and BAL cell count; type: in vivo; details: for methacholine induced bronchoconstriction (Penh): methacholine 5 and 20 mg/mL
Procedure: Effect of potassium 2,5-diacetoxybenzene sulfonate (DABS) on bronchoconstriction in asthmatic mice treated with methacholine. All the mice were exposed to nebulized methacholine (MC; 5 and 20 mg/ml). Bronchoconstriction was determined as the enhanced pause. (Penh), calculated as described in the corresponding example (example 13).
Effect of potassium 2,5-diacetoxybenzene sulfonate (DABS) on the inflammatory cell count in the bronchoalveolar lavage (BAL) in asthmatic mice.
6-9 week old Balb/c mice were used. The ovoalbumin (OVA)/aluminum complex was obtained after dissolving OVA (500 μg/mL) in PBS, and mixing it with an equal volume of 10% aluminum potassium sulfate at pH 6.5 for 1 hour. After centrifuging the pellet (750×g for 5 minutes) the OVA/aluminum pellet was resuspended in distilled water. On day 0, the mice were injected intraperitoneally injected with 100 μg of OVA/aluminum. Eight days later, the mice were anesthetized and exposed to 250 μg of OVA. Later, they were administered 125 μg of OVA on days 15, 18 and 21. […].
The following treatments were administered to the animals: (i.p.) vehicle from day 2, potassium 2,5-diacetoxybencene sulfonate (DABS; 100 mg/kg/day, i.p.) from day 2, DABS (100 mg/kg/day, i.p.) from day 8 and Combivent (20 μg/200 μg in aerosol) on days 20, 21 and 22, the latter as a reference treatment.
In order to evaluate the pulmonary function, the response to methacholine in conscious mice was determined, 24 hours after the last exposure to OVA. The mice were exposed to increasing methacholine concentrations (5 and 20 mg/mL) in the form of aerosol using an ultrasonic nebulizer during 2 minutes. The degree of bronchoconstriction was expressed as the enhanced pause (Penh) which correlates to the mouse air resistance, impedance and pressure within the pleura. The Penh enh was calculated using the formula Penh=[([…]/Rt−1)×(PEF/PIF)], where Te is expiratory time, Rt is relaxation time, PEF is peak expiratory flow and PIF is peak inspiratory flow x 0.67 coefficient.
After measuring airway hyperreactivity, the mice were sacrificed and the bronchoalveolar lavage (BAL) of the right lung was collected. The total number of cells in the BAL fluid was determined.

fibroblast growth factor-1 (FGF-1), sequence (P05230 whole entry, species assumed): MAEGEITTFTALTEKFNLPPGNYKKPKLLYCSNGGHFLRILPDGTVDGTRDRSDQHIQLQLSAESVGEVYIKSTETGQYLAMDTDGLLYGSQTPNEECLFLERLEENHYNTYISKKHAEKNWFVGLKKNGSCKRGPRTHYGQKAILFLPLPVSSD

| SMILES | histology of the implanted uterine (cervix) tissue, hematoxylin-eosin [1] | neovascularization of the implanted uterine tissue [1] | angiogenic activity in the gastric mucosa [2] | appearance of gastric mucosa / epithelial membrane, hematoxylin-eosin [2] | symptoms of congestion and erythema of the gastric mucosa [2] | FGF-1 induced mitogenesis [3] | reduction of BAL cells compared with Combivent ([4]; 100 mg/kg/day i.p.) | methacholine induced bronchoconstriction (Penh) ([4]; 100 mg/kg/day i.p. from day 2) | methacholine induced bronchoconstriction (Penh) ([4]; 100 mg/kg/day i.p. from day 8) | presence of cells in bronchoalveolar lavage (BAL) ([4]; 100 mg/kg/day i.p., from day 2 or day 8) | increase of Penh after exposure to methacholine vs saline ([4]; DABS groups, 100 mg/kg/day i.p.) |
| --- | --- | --- | --- | --- | --- | --- | --- | --- | --- | --- | --- |
| O=S(=O)(O)c1cc(O)ccc1O [DHBS, 2,5-dihydroxybenzenesulfonic acid] | athrophy of the cervix tissue implanted; also recorded: Degeneration of the uterine tissue implanted | not present | less angiogenic activity | apparently normal; also recorded: normal appearance | the symptoms of congestion and erythema disappear | – | – | – | – | – | – |
| CC(=O)Oc1ccc(OC(C)=O)c(S(=O)(=O)[O-])c1.[K+] [DABS, potassium 2,5-diacetoxybenzene sulfonate] | – | – | – | – | – | Inhibition | even more than the treatment with Combivent | completely prevented | completely prevented | significantly reduced | do not show a significant increase |
